Data taken from ChEMBL document CHEMBL1201862, “PubChem BioAssay data set” (2004).
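Exposure lasted 48 hours, with cells grown in 96-well plates and compounds tested at five concentrations. Abbreviation: GI50, concentration required for 50% inhibition of growth.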 The source made the active and inactive calls. Cut-off read from the data, not from the text of the source: active = GI50 up to about 1.1 µM and inactive = higher.

Assays:
Experiment in all cases: NCI anticancer screen, dose series, 48 h
COLO 205 = system: COLO 205
IGROV-1 = system: IGROV-1
HOP-92 = system: HOP-92
SNB-75 = system: SNB-75
NCI-H226 = system: NCI-H226
UO-31 = system: UO-31
MDA-MB-435 = system: MDA-MB-435
CCRF-CEM = system: CCRF-CEM
786-0 = system: 786-0
UACC-257 = system: UACC-257
SK-MEL-28 = system: SK-MEL-28
SF-295 = system: SF-295
A549 = system: A549
HCT-116 = system: HCT-116
M14 = system: M14
SR = system: SR
LOX IMVI = system: LOX IMVI
SW-620 = system: SW-620
UACC-62 = system: UACC-62
SK-OV-3 = system: SK-OV-3

Measured: GI50

c1ccc(/N=C2\SC(c3ccccc3)CN2C23CC4CC(CC(C4)C2)C3)cc1 (centres undefined)
inactive: COLO 205 > 100 µM | IGROV-1 > 100 µM | HOP-92 > 100 µM | SNB-75 > 100 µM | NCI-H226 > 100 µM | UO-31 > 100 µM | MDA-MB-435 > 100 µM | CCRF-CEM > 100 µM | 786-0 > 100 µM | UACC-257 > 100 µM | SK-MEL-28 > 100 µM | SF-295 > 100 µM | A549 > 100 µM | HCT-116 > 100 µM | M14 > 100 µM | SR > 100 µM | LOX IMVI > 100 µM | SW-620 > 100 µM

Cc1cc(N(CCCl)CCCl)ccc1/C=N/NC(=O)Cc1cc(=O)oc2cc(O)ccc12
inactive: COLO 205 17.7 µM | IGROV-1 15.8 µM | HOP-92 27 µM | SNB-75 28.6 µM | NCI-H226 15.7 µM | UO-31 22.9 µM | MDA-MB-435 11.2 µM | UACC-62 2.37 µM | CCRF-CEM 6.38 µM | 786-0 18.8 µM | UACC-257 20.8 µM | SK-MEL-28 12.6 µM | SF-295 17.2 µM | A549 12.2 µM | HCT-116 17.5 µM | M14 14.3 µM | SR 7.08 µM | LOX IMVI 12.6 µM | SW-620 21.4 µM

OCC(O)COCn1cc(Cn2ncc3c(O)ncnc32)nn1 (centres undefined)
inactive: COLO 205 > 100 µM | IGROV-1 > 100 µM | HOP-92 > 100 µM | NCI-H226 > 100 µM | UO-31 > 100 µM | MDA-MB-435 > 100 µM | UACC-62 > 100 µM | CCRF-CEM > 100 µM | 786-0 > 100 µM | UACC-257 > 100 µM | SK-MEL-28 > 100 µM | SF-295 > 100 µM | A549 > 100 µM | HCT-116 > 100 µM | M14 > 100 µM | SR > 100 µM | SK-OV-3 > 100 µM | LOX IMVI > 100 µM | SW-620 > 100 µM

C[C@]12CC[C@H]3[C@@H](CCC4=CC(=O)CC[C@@]43C)[C@@H]1CC[C@@H]2C(=O)Nc1ccc([N+](=O)[O-])c(C(F)(F)F)c1
inactive: COLO 205 18.2 µM | IGROV-1 22.8 µM | HOP-92 39.8 µM | NCI-H226 21.2 µM | UO-31 16.6 µM | MDA-MB-435 18 µM | UACC-62 15.3 µM | CCRF-CEM 24.7 µM | 786-0 16.6 µM | UACC-257 > 10 µM | SK-MEL-28 20.7 µM | SF-295 17.1 µM | A549 17.9 µM | HCT-116 17.5 µM | SR 23.7 µM | SK-OV-3 12.7 µM | LOX IMVI 15.8 µM | SW-620 20.9 µM

Cc1cn(C2CC(N=[N+]=[N-])C(C(=O)O)O2)c(=O)[nH]c1=O (centres undefined)
inactive: COLO 205 > 100 µM | IGROV-1 > 100 µM | HOP-92 > 100 µM | SNB-75 > 100 µM | NCI-H226 > 100 µM | UO-31 > 100 µM | MDA-MB-435 > 100 µM | UACC-62 > 100 µM | CCRF-CEM > 100 µM | 786-0 > 100 µM | UACC-257 > 100 µM | A549 > 100 µM | HCT-116 > 100 µM | M14 > 100 µM | SR > 100 µM | SK-OV-3 > 100 µM | SW-620 > 100 µM

CCOC(=O)N/N=C(/OCC)c1ccccc1
inactive: COLO 205 > 100 µM | IGROV-1 > 100 µM | HOP-92 > 100 µM | NCI-H226 > 100 µM | UO-31 > 100 µM | MDA-MB-435 > 100 µM | UACC-62 > 100 µM | CCRF-CEM > 100 µM | 786-0 > 100 µM | UACC-257 > 100 µM | SK-MEL-28 > 100 µM | SF-295 > 100 µM | A549 > 100 µM | HCT-116 > 100 µM | SR > 100 µM | SK-OV-3 > 100 µM | LOX IMVI > 100 µM | SW-620 > 100 µM

COC(=O)C(CNC(=O)/C=C/c1ccc(OC(C)=O)c(OC(C)=O)c1)NC(=O)/C=C/c1ccc(OC(C)=O)c(OC(C)=O)c1 (centres undefined)
inactive: COLO 205 > 100 µM | IGROV-1 > 100 µM | HOP-92 > 100 µM | NCI-H226 > 100 µM | UO-31 > 100 µM | MDA-MB-435 > 100 µM | UACC-62 > 100 µM | CCRF-CEM 42.4 µM | 786-0 > 100 µM | UACC-257 > 100 µM | SK-MEL-28 > 100 µM | SF-295 > 100 µM | A549 > 100 µM | HCT-116 > 100 µM | M14 > 100 µM | SR 92.9 µM | SK-OV-3 57.5 µM | LOX IMVI > 100 µM | SW-620 > 100 µM

CC(C)CCNC(=O)c1ccc(CNC(=O)/C=C/c2cccc(Oc3ccccc3)c2)cc1
inactive: COLO 205 > 100 µM | IGROV-1 67.5 µM | HOP-92 53.2 µM | SNB-75 34.9 µM | NCI-H226 47.4 µM | UO-31 45 µM | MDA-MB-435 13.6 µM | UACC-62 23.8 µM | 786-0 24 µM | UACC-257 23.2 µM | SK-MEL-28 > 100 µM | SF-295 23.8 µM | A549 42.6 µM | HCT-116 24.5 µM | M14 31 µM | SR 8.77 µM | SK-OV-3 33.1 µM | LOX IMVI 37.2 µM | SW-620 41.4 µM

Cc1cc(C)c(C)c(-n2[nH]c(=O)n(C)c2=O)c1C
inactive: COLO 205 > 100 µM | IGROV-1 > 100 µM | HOP-92 > 100 µM | NCI-H226 > 100 µM | UO-31 > 100 µM | MDA-MB-435 > 100 µM | UACC-62 > 100 µM | CCRF-CEM > 100 µM | 786-0 > 100 µM | UACC-257 > 100 µM | SK-MEL-28 > 100 µM | SF-295 > 100 µM | A549 > 100 µM | HCT-116 > 100 µM | M14 > 100 µM | SR > 100 µM | SK-OV-3 > 100 µM | LOX IMVI 99.3 µM | SW-620 > 100 µM

COC1C(=O)CCC2(CO2)C1(O)C1(C)OC1CCC(C)C (centres undefined)
inactive: COLO 205 23.9 µM | IGROV-1 48.1 µM | HOP-92 > 100 µM | SNB-75 > 100 µM | NCI-H226 > 100 µM | UO-31 > 100 µM | MDA-MB-435 61.1 µM | UACC-62 36.2 µM | CCRF-CEM 40.4 µM | 786-0 47.2 µM | UACC-257 > 100 µM | SK-MEL-28 21.8 µM | SF-295 13.6 µM | HCT-116 21.5 µM | M14 20.1 µM | SR > 100 µM | SK-OV-3 > 100 µM | SW-620 19.8 µM

C=CCOC(=O)N1c2ccc(O)cc2[C@@]23O[C@@]24[C@@H]1C#C/C=C\C#C[C@]3(O)C(OC)(OC)C[C@@H]4C
inactive: COLO 205 19.1 µM | IGROV-1 25.8 µM | HOP-92 16.4 µM | SNB-75 12.1 µM | NCI-H226 24.9 µM | UO-31 37.2 µM | MDA-MB-435 15.1 µM | UACC-62 33.7 µM | CCRF-CEM 23.6 µM | 786-0 22.2 µM | UACC-257 19.1 µM | SK-MEL-28 45.1 µM | SF-295 36.9 µM | A549 50.5 µM | HCT-116 35.2 µM | M14 23.8 µM | SR 24.2 µM | SK-OV-3 61 µM | SW-620 52.2 µM

C#CCSc1nc(-c2ccco2)n[nH]1
inactive: COLO 205 > 100 µM | IGROV-1 48.5 µM | HOP-92 > 100 µM | SNB-75 > 100 µM | NCI-H226 > 100 µM | UO-31 17.2 µM | MDA-MB-435 > 100 µM | UACC-62 > 100 µM | 786-0 > 100 µM | UACC-257 > 100 µM | SK-MEL-28 > 100 µM | SF-295 > 100 µM | A549 > 100 µM | HCT-116 > 100 µM | M14 > 100 µM | SR > 100 µM | SK-OV-3 > 100 µM | LOX IMVI > 100 µM | SW-620 > 100 µM

O=c1[nH]nc(-c2ccccc2)c2[nH]c3c(c12)CCCc1ccccc1-3
inactive: COLO 205 9.79 µM | IGROV-1 12.5 µM | HOP-92 13.3 µM | NCI-H226 16.1 µM | UO-31 12.8 µM | MDA-MB-435 13 µM | UACC-62 11.7 µM | CCRF-CEM 14 µM | 786-0 14.2 µM | UACC-257 18.7 µM | SF-295 20.7 µM | A549 9.46 µM | HCT-116 13.2 µM | M14 16.8 µM | SR 15.1 µM | SK-OV-3 52.2 µM | LOX IMVI 16.5 µM | SW-620 19.1 µM

NS(=O)(=O)c1nnc(NS(=O)(=O)c2ccc(F)cc2)s1
inactive: COLO 205 > 100 µM | HOP-92 > 100 µM | NCI-H226 > 100 µM | UO-31 > 100 µM | MDA-MB-435 > 100 µM | UACC-62 > 100 µM | CCRF-CEM > 100 µM | 786-0 > 100 µM | UACC-257 > 100 µM | SK-MEL-28 > 100 µM | SF-295 > 100 µM | A549 > 100 µM | HCT-116 > 100 µM | M14 > 100 µM | SR > 100 µM | SK-OV-3 > 100 µM | LOX IMVI > 100 µM | SW-620 > 100 µM

O=C(O)Cc1cc(O)c(CC(=O)O)cc1O
inactive: IGROV-1 > 100 µM | HOP-92 > 100 µM | NCI-H226 > 100 µM | UO-31 > 100 µM | MDA-MB-435 > 100 µM | UACC-62 > 100 µM | 786-0 > 100 µM | UACC-257 > 100 µM | SK-MEL-28 > 100 µM | SF-295 > 100 µM | A549 > 100 µM | HCT-116 > 100 µM | M14 > 100 µM | SR > 100 µM | LOX IMVI > 100 µM | SW-620 > 100 µM
